Laboratory results as given in US10827753B2, “Compositions and methods for controlling nematodes” (Monsanto Technology LLC, priority 2007, dated 2020).
Marks after values point to notes of the source that are not given here.

System: Meloidogyne incognita
Experiment: M. incognita miniaturized greenhouse assay on cucumber seedlings (root galling)
Format: in vivo
Set-up: key to 1 ppm gall ratings / 1 ppm gall rating: mean of 3 gall ratings: 0=0-5%, 1=6-20%, 2=21-50%, 3=51-100% root galled
Conditions: for 8 ppm gall ratings: average of triplicate gall rating, scale 0-3 (% root mass galled); for 1 ppm gall ratings: Table 1B test a
Description: The test compound is dissolved in an acetone solution and added to water. A sprouted cucumber seedling is placed into a vial with dry sand and the water-chemical solution is added immediately. Twenty four hours later Meloidogyne incognita eggs are added to the vials and 10 to 12 days later the roots are evaluated for nematode galling.
Cucumber seeds are sprouted for 3 days in moist paper towels. Acceptable sprouts should be 3 to 4 cm long with several lateral roots just emerging. Stock solutions of chemistry are prepared in a mixture of acetone and Triton X100 (412 mg in 500 mL) to a final concentration of 5 mg/mL. The chemical stock solution is then added to 10 mL deionized water plus 0.015% Triton X100 and mixed thoroughly. This is enough to test each condition in triplicate. Ten mL dry sand is added to each vial. At this time the solubility of the chemistry is visually determined and recorded as either ppt (large precipitates) or cloudy (fine precipitates). Seedlings are planted by tilting the vial and laying the seedling in the correct orientation so that the cotyledons are just above the sand and then tilting back to cover the radicles with sand. 3.3 ml water/chemical mix is added to each vial and the vials placed in racks under fluorescent light banks. The vials are inoculated two days after planting by adding 500 vermiform M. incognita eggs to each vial in 50 uL of deionized or spring water. The vials are then kept under the fluorescent lamps at ambient room temperature and watered as needed with 1 mL deionized water, usually twice during duration of test. Harvest of the cucumber plants is done 10 to 12 days after inoculation by washing sand off the roots. A root gall rating and visual phytotoxicity rating is assigned using the following scales: Gall rating scale (Gall: % root mass galled): 0=0-5%; 1=6-20%; 2=21-50%; and 3=51-100%. The average of the triplicate gall rating is then calculated: green=0.00-0.33 (no galls); yellow=0.67-1.33 (mild galling); orange=1.67-2.33 (moderate galling); red=2.67-3.00 (severe galling). Visual phytotoxicity scale is also assigned (Vis. tox; visual reduction in root mass compared to the control): rs1=mild stunting; rs2=moderate stunting; rs3=severe stunting.

Row | SMILES | 8 ppm gall ratings (8 ppm) | also measured
1 | c1ccc(-c2cc(-c3ccco3)n[nH]2)cc1 [3-(furan-2-yl)-5-phenyl-1H-pyrazole, reference compound] |  | nematicidal activity (in words, referring to table 1D) (8 ppm): nematicidal activity is seen
2 | c1ccc(-c2nc(-c3cccs3)cs2)cc1 [compound 1787] |  | 1 ppm gall rating (Table 1D test b): 3^b (3=51-100%); 8 ppm gall rating (8 ppm, Table 1D test b): 1.67^b
3 | Brc1ccc(-c2nnc(-c3cccs3)o2)cc1 [compound 4948] | 0 (0=0-5%) | 
4 | FC(F)(F)c1ccc(-c2nnc(-c3cccs3)o2)cc1 [compound 4971] | 0.67 | 
5 | Cc1ccc(-c2nnc(-c3cccs3)o2)cc1 [compound 5006] | 0 (0=0-5%) | 
6 | Clc1cccc(-c2nnc(-c3cccs3)o2)c1 [compound 5012] | 0.67 | 
7 | Clc1ccc(-c2nnc(-c3ccco3)o2)cc1 [compound 5082] | 1.67 | 
8 | Cc1ccccc1-c1nnc(-c2cccs2)o1 [compound 5090] | 1.67 | 
9 | FC(F)(F)c1ccc(-c2nnc(-c3ccco3)o2)cc1 [compound 5132] | 1.33 | 
10 | FC(F)(F)c1cccc(-c2noc(-c3ccco3)n2)c1 [compound 5181] | 0.33 | 
11 | FC(F)(F)c1cccc(-c2noc(-c3cccs3)n2)c1 [compound 5212] | 1 (1=6-20%) | 
12 | c1cncc(-c2noc(-c3ccco3)n2)c1 [compound 5292] | 0.67 | 
13 | c1cncc(-c2noc(-c3cccs3)n2)c1 [compound 5297] | 0.33 | 
14 | c1ccc(-c2noc(-c3ccco3)n2)cc1 [compound 5383] |  | 1 ppm gall ratings: 1.33^a
15 | c1csc(-c2nnc(-c3cccc4ccccc34)o2)c1 [compound 5456] | 0.67 | 
16 | Ic1ccc(-c2noc(-c3cccs3)n2)cc1 [compound 5468] | 1 (1=6-20%) | 
17 | Brc1ccc(-c2nc(-c3cccs3)no2)cc1 [compound 5475] | 1.33 | 

Row | SMILES | 8 ppm gall ratings (8 ppm) | also measured
18 | Fc1ccc(-c2noc(-c3ccco3)n2)cc1 [compound 5478] | 0 (0=0-5%) | 
19 | Clc1ccc(-c2nnc(-c3ccco3)o2)c(Cl)c1 [compound 5499] | 0 (0=0-5%) | 1 ppm gall ratings: 1^a (1=6-20%)
20 | Ic1ccc(-c2noc(-c3ccco3)n2)cc1 [compound 5556] | 0.33 | 
21 | c1ccc(-c2cnc(-c3ccco3)o2)cc1 [compound 5586] | 0.67 | 
22 | Brc1ccc(-c2cnc(-c3ccco3)o2)cc1 [compound 5587] | 0 (0=0-5%) | 
23 | Fc1ccc(-c2cnc(-c3ccco3)o2)cc1 [compound 5618] | 1.33 | 
24 | Cc1cccc(-c2noc(-c3cccs3)n2)c1 [compound 5622] | 0 (0=0-5%) | 
25 | Cc1ccc(-c2noc(-c3cccs3)n2)cc1 [compound 5623] | 0 (0=0-5%) | 
26 | Cc1cccc(-c2noc(-c3ccco3)n2)c1 [compound 5625] | 0.33 | 
27 | c1ccc(-c2csc(-c3cccs3)n2)cc1 [compound 5645] |  | 1 ppm gall rating (Table 1D test b): 2^b (2=21-50%); 8 ppm gall rating (8 ppm, Table 1D test b): 0^b (0=0-5%)
28 | Brc1cccc(-c2noc(-c3cccs3)n2)c1 [compound 5663] | 0 (0=0-5%) | 1 ppm gall rating (Table 1D test b): 1.67^b; 8 ppm gall rating (8 ppm, Table 1D test b): 0^b (0=0-5%)
29 | Cc1ccc(-c2nnc(-c3ccco3)o2)cc1 [compound 5666] | 1.33 | 
30 | Brc1cccc(-c2nnc(-c3ccco3)o2)c1 [compound 5671] | 0.67 | 
31 | Brc1cccc(-c2noc(-c3ccco3)n2)c1 [compound 5672] | 0 (0=0-5%) | 
32 | c1ccc(-c2cc(-c3ccco3)n[nH]2)cc1 [compound 5725] |  | 1 ppm gall rating (Table 1D test a): 3^a (3=51-100%); 8 ppm gall rating (8 ppm, Table 1D test a): 1.33^a
33 | Cc1ccc(-c2noc(-c3ccco3)n2)cc1 [compound 5735] |  | 1 ppm gall rating (Table 1D test a): 2^a (2=21-50%); 8 ppm gall rating (8 ppm, Table 1D test a): 0^a (0=0-5%)
34 | Clc1ccccc1-c1noc(-c2cccs2)n1 [compound 5738] |  | 1 ppm gall rating (Table 1D test a): 1.33^a; 8 ppm gall rating (8 ppm, Table 1D test a): 0^a (0=0-5%)
